{"source": "patent US4970199A", "about": "“Steroidal glycolipids as host resistance stimulators against viral infection” (priority 1989, dated 1990)", "key": {"[1]": {"details": "cited from earlier work"}, "HIV [2]": {"test_system": "HIV", "details": "cited from earlier work"}, "[3]": {"details": "cited from earlier work", "remark": "listed apart in the source"}, "[4]": {"test_system": "Mycobacterium avium-intracellulare", "details": "human, in vivo; cited from earlier work"}, "HIV [5]": {"test_system": "HIV", "details": "clinical trials; cited from earlier work"}, "[6]": {"test_system": "Herpes Simplex Virus-1 (HSV1)", "test": "Antiviral experiment in mice infected IP with Herpes Simplex Virus-1", "type": "in vivo, HSV1 (Schloser), in ICR mice", "protocol": "An antiviral experiment was conducted to compare treatment with 6-(5-Cholesten-3β-yloxy)hexyl 1-thio-β-D-mannopyranoside (Example 2) in mice infected IP with Herpes Simplex Virus-1 (HSV1) immediately before (post treatment) or after 5 days of treatment (pretreatment).\nTen mice (ICR, 20 gm, mixed sexes) were pretreated by SC injection of a 0.1 mL suspension of test compound twice a day for 4 days. On day 5, the mice were injected IP with 0.5 mL solution of HSV1 (Schloser, 10-5). The post treatment group was infected with HSV1 prior to administration of test compound. Day of death from time of infection with HSV1 was recorded for each mouse and average day of death per treatment group was calculated."}, "Pseudomonas aeruginosa": {"test_system": "Pseudomonas aeruginosa", "test": "Stimulation of host resistance: protection of cyclophosphamide-immunocompromised mice from Pseudomonas aeruginosa infection", "type": "in vivo, Pseudomonas aeruginosa (Immunotype 1), in CF1 female mice", "details": "Table 3, CY-treated mice, dose not printed in table (initial test dose 40 mg per kg)", "protocol": "Groups of 15-20 CF1 female mice (Charles River Breeding, Cambridge, Mass.) weighing 22-28 gm were injected intraperitoneally (i.p.) with cyclophosphamide (Cytoxan; CY) at 250 mg per kg body weight. One to two hours later they were typically injected again with the test material by the route specified. Four days later, the mice were divided into groups of five, each of which were injected i.p. with a different dilution of a suspension of Pseudomonas aeruginosa (Immunotype 1). The number of survivors was determined periodically and an estimate was made of the number of CFU of Pseudomonas organisms necessary to cause 50% lethality by the cumulative method of L. J. Reed and H. Muench (Am. J. Hygiene 27 (1938) 493-497). A protective index (P.I.) was defined as the LD50 for the mice receiving cyclophosphamide and the test compound divided by the LD50 for the mice receiving cyclophosphamide alone. All control mice were injected with aqueous vehicle in the same route and schedule as the test animals.\nMATERIALS. All compounds for dosing were suspended in a sterile medium referred to as \"aqueous vehicle\" which contains 0.9% sodium chloride, 0.5% carboxymethyl cellulose, 0.4% Tween 80, and 0.9% benzyl alcohol unless otherwise stated. Test materials were evaluated via subcutaneous (s.c.), i.p., intramuscular (i.m.), orally (p.o.). and intravenous (i.v.) routes of administration. […]"}, "[7]": {"test_system": "reverse transcriptase in several retroviruses", "details": "in vitro; cited from earlier work"}, "[8]": {"test_system": "human immunodeficiency virus (HIV)", "details": "cited from earlier work"}, "Kaposi's sarcoma": {"test_system": "Kaposi's sarcoma", "details": "in vivo; cited from earlier work"}}, "note": "Entries after “also recorded” stand apart in the source; their conditions may differ."}
{"compound": "Cc1cn([C@H]2C[C@H](N=[N+]=[N-])[C@@H](CO)O2)c(=O)[nH]c1=O", "note": "[AZT, 3'-azido-3'-deoxythymidine]", "values": [{"measurement": "toxicity", "setting": "[1]; in vivo", "value": "some toxicity, with anemia and headaches"}, {"measurement": "prolonging lives of patients with AIDS or ARC", "setting": "HIV [2]; human, in vivo", "value": "show promise in prolonging lives of patients with AIDS or AIDS-related complex (ARC)"}, {"measurement": "half-life in the body", "setting": "[3]; in vivo", "value": "relatively short half-life in the body"}, {"measurement": "oral absorption", "setting": "[3]; oral", "value": "Well absorbed orally"}]}
{"compound": "CO[C@H]1/C=C/O[C@@]2(C)Oc3c(C)c(O)c4c(c3C2=O)C2=NC3(CCN(CC(C)C)CC3)NC2=C(NC(=O)/C(C)=C\\C=C\\[C@H](C)[C@H](O)[C@@H](C)[C@@H](O)[C@@H](C)[C@H](OC(C)=O)[C@@H]1C)C4=O", "note": "[Ansamycin, rifabutin]", "values": [{"measurement": "efficacy in AIDS patients with opportunistic infection", "setting": "[4]", "value": "some efficacy in treating AIDS patients with an opportunistic infection"}]}
{"compound": "CC(C)(N1CC1C#N)N1CC1C(N)=O", "note": "(stereo not drawn) [Azimexon]", "values": [{"measurement": "toxic effect", "setting": "[1]; early trial, disappeared when treatment ceased", "value": "only toxic effect was mild hemolysis"}, {"measurement": "symptoms and immune function", "setting": "HIV [2]; early trial, ARC and AIDS patients", "value": "improvements in symptoms and immune function in patients with ARC but not AIDS"}]}
{"compound": "CC(C)(S)[C@@H](N)C(=O)O", "note": "[D-Penicillamine, 3-mercapto-D-valine]", "values": [{"measurement": "HIV reproduction / viral replication in patients", "setting": "HIV [5]", "value": "Inhibits HIV reproduction in humans; also recorded: suppressed the virus"}]}
{"compound": "CC(C)CCC[C@@H](C)[C@H]1CC[C@H]2[C@@H]3CC=C4C[C@@H](OCCCCCCS[C@@H]5O[C@H](CO)[C@@H](O)[C@H](O)[C@@H]5O)CC[C@]4(C)[C@H]3CC[C@]12C", "note": "[Example 2, 6-(5-Cholesten-3β-yloxy)hexyl 1-thio-β-D-mannopyranoside]", "values": [{"measurement": "protection from fatal viral infection over placebo treated animals, by day of death", "setting": "[6]; 50 mg/kg twice a day for four days", "value": "statistically enhanced protection from fatal viral infection over placebo treated animals"}, {"measurement": "protection of pretreated mice over the post treatment group", "setting": "[6]; pretreatment vs post treatment", "value": "statistically enhanced protection over the post treatment group"}]}
{"compound": "CC[C@H](/C=C/[C@@H](C)[C@H]1CC[C@H]2[C@@H]3CC=C4C[C@@H](OCCCCCCS[C@@H]5O[C@H](CO)[C@@H](O)[C@H](O)[C@@H]5O)CC[C@]4(C)[C@H]3CC[C@]12C)C(C)C", "note": "[Example 6, 6-(Stigmasta-5,22-dien-3β-yloxy)hexyl 1-thio-β-D-mannopyranoside]", "values": [{"measurement": "Protective Index (log)", "setting": "Pseudomonas aeruginosa", "value": 2.0, "unit": "log"}]}
{"compound": "CC(=O)NC(C)C1CCC2C3CC=C4CC(OCCCCCCSC5OC(CO)C(O)C(O)C5O)CCC4(C)C3CCC12C", "note": "[Example 11, 6-(20S-Acetamido-pregn-5-en-3β-yloxy)hexyl 1-thio-β-D-mannopyranoside]", "values": [{"measurement": "Protective Index (log)", "setting": "Pseudomonas aeruginosa", "value": 3.0, "unit": "log"}]}
{"compound": "O=C(O)P(=O)(O)O", "note": "[Foscarnet, trisodium phosphonoformate]", "values": [{"measurement": "side effects", "setting": "[1]; in vivo", "value": "serious side effects"}]}
{"compound": "CC(=O)Nc1ccc(C(=O)O)cc1.CC(=O)Nc1ccc(C(=O)O)cc1.CC(=O)Nc1ccc(C(=O)O)cc1.CC(O)CN(C)C.CC(O)CN(C)C.CC(O)CN(C)C.O=c1[nH]cnc2c1ncn2[C@@H]1O[C@H](CO)[C@@H](O)[C@H]1O", "note": "[Inosine pranobex]", "values": [{"measurement": "immune function in ARC or AIDS patients", "setting": "HIV [2]; human, in vivo", "value": "improve immune function in ARC patients"}]}
{"compound": "NC(=O)c1ncn([C@@H]2O[C@H](CO)[C@@H](O)[C@H]2O)n1", "note": "[Ribavirin, 1-β-D-ribofuranosyl-1,2,4-triazole-3-carboxamide]", "values": [{"measurement": "HIV reproduction / viral replication in patients", "setting": "HIV [5]", "value": "inhibited viral replication"}, {"measurement": "safety profile", "setting": "[1]; in vivo", "value": "acceptable"}, {"measurement": "tolerability", "setting": "[1]; in vivo", "value": "well tolerated"}, {"measurement": "immune function in ARC or AIDS patients", "setting": "HIV [2]; human, in vivo", "value": "improved immune function in AIDS patients"}]}
{"compound": "Cc1ccc(C(=O)Nc2ccc(S(=O)(=O)O)c3cc(S(=O)(=O)O)cc(S(=O)(=O)O)c23)cc1NC(=O)c1cccc(NC(=O)Nc2cccc(C(=O)Nc3cc(C(=O)Nc4ccc(S(=O)(=O)O)c5cc(S(=O)(=O)O)cc(S(=O)(=O)O)c45)ccc3C)c2)c1", "note": "[Suramin]", "values": [{"measurement": "therapeutic benefit or clinical improvement in AIDS patients", "setting": "HIV [2]", "value": "little or no evidence of clinical improvement or immunologic recovery"}]}
{"compound": "ammonium 21-tungsto-9-antimoniate [HPA-23]", "values": [{"measurement": "reverse transcriptase inhibition, several retroviruses", "setting": "[7]", "value": "Inhibits reverse transcriptase in several retroviruses in vitro"}, {"measurement": "therapeutic benefit or clinical improvement in AIDS patients", "setting": "HIV [2]", "value": "no therapeutic benefit has been documented in AIDS patients"}, {"measurement": "growth of HIV", "setting": "[8]", "value": "some tendency to check the growth of HIV"}]}
{"compound": "α-Interferon", "values": [{"measurement": "growth of HIV", "setting": "[8]", "value": "Checks the growth of HIV in vitro"}, {"measurement": "tumor regression in AIDS-related Kaposi's sarcoma", "setting": "Kaposi's sarcoma", "value": "induced tumor regression in some AIDS-related Kaposi's sarcoma cases"}]}
